From patent publication US20260078103A1, “ISOQUINOLONES AS PI3K INHIBITORS” (OnKure, Inc., priority 2022, published 2026)
Like-named read-outs stand apart in the source and are kept apart here.

Columns and labels:
Assay type in all cases: cell-based
[1] = system: phosphorylation of AKT (pAKT) in T47D cells expressing mutant PI3Ka (H1047R); test: In vitro cell pAKT (Ser473) HTRF, T47D cells; settings: cellular pAKT, T47D cells, mutant PI3Ka (H1047R), 6 hours, read-out: Avg T-47D IC50
In short: (§1)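 T47D cells (RPMI, 10% FBS, 0.2 units/mL insulin) or SKBR3 cells (McCoy's 5a, 10% FBS) were seeded onto 10-point compound dilutions and incubated 6 h at 37 °C. After lysis, pAKT was detected overnight by HTRF (Eu cryptate/d2). IC50 was fitted from % inhibition relative to 0.1% DMSO and 10 uM alpelisib controls.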

[2] = system: T47D cells expressing mutant PI3Ka (H1047R); test: In vitro cell proliferation, T47D cells (CellTiter-Glo); settings: inhibition of proliferation, read-out: Avg T-47D EC50
In short: (§2)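 T47D (PI3Kα H1047R; RPMI, 10% FBS, insulin 0.2 units/mL) or SKBR3 (WT PI3Kα; McCoys 5a, 10% FBS) cells seeded at 1,500 cells/well on 10-point compound dilutions, grown 72 h at 37 °C. CellTiter-Glo luminescence; inhibition normalised to 0.1% DMSO and 10 uM alpelisib, EC50 from four-parameter fit.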

[3] = system: phosphorylation of AKT (pAKT) in SKBR3 cells express WT PI3Ka; test: In vitro cell pAKT (Ser473) HTRF, SKBR3 cells; settings: cellular pAKT
In short: as §1

[4] = system: SKBR3 cells express WT PI3Ka; test: In vitro cell proliferation, SKBR3 cells (CellTiter-Glo); settings: inhibition of proliferation
In short: as §2

| SMILES | IC50 ([1]; Homo sapiens, T47D, 6 h) [µM] | EC50 ([2]; Homo sapiens, T47D, 72 h) [µM] | IC50 ([3]; Homo sapiens, SK-BR-3, 6 h) [µM] | EC50 ([4]; Homo sapiens, SK-BR-3, 72 h) [µM] | IC50 [1] [µM] | EC50 ([2]; 72 hours) [µM] | IC50 ([3]; 6 hours) [µM] | EC50 ([4]; 72 hours) [µM] |
| --- | --- | --- | --- | --- | --- | --- | --- | --- |
| Cc1cc([C@@H](C)Nc2ccccc2C(=O)O)c2cc(N3CCC4(CN(CC(F)(F)F)C4)C3)n(C)c(=O)c2c1 [Example 185] | 0.001 to 0.5 | 0.001 to 0.5 | 2 to 15 | > 15 | – | – | – | – |
| Cc1cc([C@@H](C)Nc2ccccc2C(=O)O)c2cc(N3CCn4cc(C)nc4C3)n(C)c(=O)c2c1 [Example 434] | 0.001 to 0.5 | 0.001 to 0.5 | > 15 | > 15 | – | – | – | – |
| Cc1cc([C@@H](C)Nc2ccccc2C(=O)O)c2cc(N3CCN(C=O)CC3)n(C)c(=O)c2c1 [Example 499] | 0.5 to 2 | 0.5 to 2 | > 15 | > 15 | – | – | – | – |
| Cc1cc([C@@H](C)Nc2ccccc2C(=O)O)c2cc(N3CCN(c4ccn(C)n4)CC3)n(C)c(=O)c2c1 [Example 232] | 0.001 to 0.5 | 0.001 to 0.5 | 2 to 15 | 2 to 15 | – | – | – | – |
| C[C@@H](Nc1ccccc1C(=O)O)c1cc(F)cc2c(=O)n(C)c(C3C[C@@H]3C(F)F)cc12 (single isomer, unassigned) [Example 488] | 0.001 to 0.5 | 0.001 to 0.5 | > 15 | > 15 | – | – | – | – |
| Cc1cc([C@@H](C)Nc2cccc(F)c2C(=O)O)c2cc(N3CCN(c4ccc(C)nc4)CC3)n(C)c(=O)c2c1 [Example 352] | 0.001 to 0.5 | 0.001 to 0.5 | 2 to 15 | 2 to 15 | – | – | – | – |
| Cc1cc([C@@H](C)Nc2ccccc2C(=O)O)c2cc(N3CCN(c4ncn(C)n4)CC3)n(C)c(=O)c2c1 [Example 253] | 0.5 to 2 | 0.5 to 2 | > 15 | > 15 | – | – | – | – |
| Cc1cc(C(C)Nc2ccccc2C(=O)O)c2cc(N3CCC4(CCCCO4)CC3)n(C)c(=O)c2c1 (single isomer, unassigned) [Example 169] | – | – | – | – | 2 to 15 | > 15 | > 15 | > 15 |
| Cc1cc([C@@H](C)Nc2ccccc2C(=O)O)c2cc(-c3cnc(CC(F)(F)F)nc3)n(C)c(=O)c2c1 [Example 348] | 0.001 to 0.5 | 0.001 to 0.5 | > 15 | > 15 | – | – | – | – |
| C[C@@H](Nc1ccccc1C(=O)O)c1cc(F)cc2c(=O)n(C)c(-c3cnc(-c4ccc(F)cn4)c(F)c3)cc12 [Example 378] | 0.001 to 0.5 | 0.001 to 0.5 | > 15 | > 15 | – | – | – | – |
| CC(=O)N1C[C@@H]2CN(c3cc4c(C(C)Nc5ccccc5C(=O)O)cc(C)cc4c(=O)n3C)C[C@H]2C1 (some centres unmarked) [Example 87] | 2 to 15 | 2 to 15 | > 15 | > 15 | – | – | – | – |
| Cc1cc([C@@H](C)Nc2ccccc2C(=O)O)c2cc(-c3ccc4c(c3)OC(F)(F)O4)n(C)c(=O)c2c1 [Example 330] | 0.001 to 0.5 | 0.5 to 2 | > 15 | > 15 | – | – | – | – |
| C[C@@H](Nc1cccc(F)c1C(=O)O)c1cc(F)cc2c(=O)n(C)c(-c3ccc(OCC(F)(F)F)nc3)cc12 [Example 441] | – | – | – | – | 0.001 to 0.5 | 0.5 to 2 | > 15 | > 15 |
| Cc1cc([C@@H](C)Nc2ccccc2C(=O)O)c2cc(N3CCN(c4ccc(CF)nc4)CC3)n(C)c(=O)c2c1 [Example 381] | – | – | – | – | 0.001 to 0.5 | 0.001 to 0.5 | 2 to 15 | 2 to 15 |
| Cc1cc([C@@H](C)Nc2ccccc2C(=O)O)c2cc(-c3cnc(C(C)(F)F)nc3)n(C)c(=O)c2c1 [Example 317] | 0.001 to 0.5 | 0.001 to 0.5 | > 15 | > 15 | – | – | – | – |
| Cc1cc([C@@H](C)Nc2ccc(Cl)nc2C(=O)O)c2cc(C3=CCN(CC(F)(F)F)CC3)n(C)c(=O)c2c1 [Example 27] | 0.001 to 0.5 | 0.001 to 0.5 | 2 to 15 | 2 to 15 | – | – | – | – |
| Cc1cc(C(C)Nc2ccccc2C(=O)O)c2cc(N3CC(c4ccccc4)C3)n(C)c(=O)c2c1 (single isomer, unassigned) [Example 76] | – | – | > 15 | > 15 | > 15 | > 15 | – | – |
